The values that follow come from patent US20110288154A1, “RNA Interference Mediated Inhibition of Epithelial Sodium Channel (ENaC) Gene Expression Using Short Interfering Nucleic Acid (siNA)” (MERCK & CO., INC., priority 2008, published 2011).

For this data set, the system named is mSCNN1A mRNA. In words: Screening of ENaCα siNAs in mouse NIH 3T3 cells (quantitative RT-PCR). The following applies: for Mean (mSCNN1A expression normalized to the level of m36B4) / Percent Reduction of the mSCNN1A mRNA relative to a non-targeting control siNA / Avg ENaCα Expression (mSCNN1A) / Avg 36B4 Expression: mouse NIH 3T3 cells, n = 3; for Mean (mSCNN1A expression normalized to the level of m36B4) / Percent Reduction of the mSCNN1A mRNA relative to a non-targeting control siNA / Avg 36B4 Expression: 24 hours post-transfection; for Avg ENaCα Expression (mSCNN1A): harvested 24 hours post-transfection; for Avg 36B4 Expression: housekeeping gene used for normalisation; for IC50 / Mouse % KD (efficacy of ENaCα mRNA knockdown): mouse cell line; for IC50: dose response, read-out: Mouse IC50 (potency of ENaCα mRNA knockdown); for Mouse % KD (efficacy of ENaCα mRNA knockdown): summary. The format is cell-based. Details: Percent Reduction of the mSCNN1A mRNA relative to a non-targeting control siNA / Mouse % KD (efficacy of ENaCα mRNA knockdown): concentration or dose not given beside the values. As for the experimental part:
siNA constructs (Table 1b) may be tested for efficacy in reducing ENaC RNA expression in, for example, A549 human lung carcinoma cells. A549 (human; ATCC cat# CCL-185) cells were cultured at 37° C. in the presence of 5% CO2 and grown in Ham's F12K medium with 2 mM L-glutamine adjusted to contain 1.5 g/L sodium bicarbonate and supplemented with fetal bovine serum at a final concentration of 10% and 100 U/mL penicillin. The A549 cells were plated approximately 24 hours before transfection in 96-well plates at 7,500 cells/well, 100 μl/well. After 24 hours complexes containing siNA and Lipofectamine 2000 (Invitrogen) were created as follows: a solution of Lipofectamine 2000 in OPTI-MEM was prepared containing Lipofectamine 2000 at a final concentration of 14 μg/ml. In parallel, solutions of the siNAs were prepared in OPTI-MEM at a final concentration of 150 nM. After both solutions were incubated at 20° C. for 20 minutes an equal volume of the siNA solutions and the Lipofectamine 2000 solution were added together for each of the siNAs. The resultant solution has the siNAs at a final concentration of 75 nM and Lipofectamine 2000 at a final concentration of 7 μg/ml. This solution was incubated at 20° C. for 20 minutes. After incubation 50 μl of the solution were added to each of the wells (in triplicate). The final concentration of siNA in each well was 25 nM and the final concentration of Lipofectamine 2000 in each well was 2.33 μg/ml. The plates were incubated for 48 hours with no change of media before harvesting. Dose response curves were determined in a similar manner with each concentration being done in triplicate and maintaining a constant amount of Lipofectamine 2000 in each transfection.
A series of probes and primers were used to detect the various mRNA transcripts of the genes of ENaCa and GAPDH in mouse, rat, and human cell lines. The assays were performed on an ABI 7500 instrument, according to the manufacturer's instructions. Within each experiment, the baseline was set in the exponential phase of the amplification curve, and based on the intersection point of the baselines with the amplification curve, a Ct value was assigned by the instrument. This Ct value was then assigned a QTY value based on the Standard Curve. The standard curve in the various experiments herein used 1 ng to 300 ng of RNA extracted from the same cell line used for the experimental transfections.
All IC50 values were calculated from the data using GraphPad Prizm software, specifically a sigmoidal, variable slope curve for simple ligand binding. Also, unless otherwise indicated, all calculations of the efficacy and potency (e.g., % knockdown) of the siNAs were done relative to a non-targeting control siNA. If reported, P-values were computed using The Students t-test, including the Welch Correction for unequal variances.
In all of the calculations of the % knock-down of mRNA, the calculation was made relative to the normalized level of expression of the gene of interest in the samples treated with the non-targeting control (NTC) unless otherwise indicated. The gene of interest expression level was divided by the level of expression of GAPDH or 36B4 (depending on the species) in each sample. The three replicates for each condition in each experiment were averaged and the standard deviation of those samples was calculated. The following formula was then used to calculate the % of knock-down of the gene of interest:
The ENaCα siNAs were designed and synthesized as described previously. The siNAs were screened in three cell lines. Human A549 cells, mouse NIH 3T3 and Rat H-4-II-E cells. The data from the screen of ENaCa siNAs in all three species is shown in Tables 3a, 3b, 4a, 4b, 5a, and 5b and a summary of the data for certain siNA molecules is presented in Table 6. Each screen was performed at 24 hrs. The decision to use this time point was based upon the degree of knockdown of the mRNA seen at that time point.

[invAb] = inverted abasic unit; m = 2'-O-methyl; r = 2'-OH (RNA); f = 2'-fluoro

For the substance “B GccAGuGGAGccuGuGGuu TTB / AACcAcAGGcuccAcuGGcUU (sense GCCAGUGGAGCCUGUGGUUTT; antisense AACCACAGGCUCCACUGGCUU; siRNA; sense: DNA at AGT, 2'-fluoro at CU, [invAb] at 5' end, 3' end, backbone not given here; antisense: sugars from the 5' end rrrfmfmmmffffmffmmfmm, backbone not given here) [Site 1757]”, the “Mean (mSCNN1A expression normalized to the level of m36B4)” value came out at 0.11, the “Percent Reduction of the mSCNN1A mRNA relative to a non-targeting control siNA” value is recorded as 22.2%, the “Avg ENaCα Expression (mSCNN1A)” value is recorded as 2.58 and the “Avg 36B4 Expression” value was 24.24.
For the substance “B GccAuccGccuGGuGuGcu TTB / AGCAcAccAGGcGGAuGGcUU (sense GCCAUCCGCCUGGUGUGCUTT; antisense AGCACACCAGGCGGAUGGCUU; siRNA; sense: DNA at AGT, 2'-fluoro at CU, [invAb] at 5' end, 3' end, backbone not given here; antisense: sugars from the 5' end rrrmfmffmmmfmmrfmmfmm, backbone not given here) [Site 310]”, the “Mean (mSCNN1A expression normalized to the level of m36B4)” value was 0.20, the “Percent Reduction of the mSCNN1A mRNA relative to a non-targeting control siNA” value turned out to be 16.6%, the “Avg ENaCα Expression (mSCNN1A)” value worked out at 3.19 and the “Avg 36B4 Expression” value was 16.02.
As a reminder, the IC50 is the point on the concentration scale where inhibition reaches its midpoint. Take “B GcuGuGccuAcAucuucuA TTB / UAGAAGAuGuAGGcAcAGcUU (sense GCUGUGCCUACAUCUUCUATT; antisense UAGAAGAUGUAGGCACAGCUU; siRNA; B caps on sense ends, letter-case modifications not given here, further chemistry not given here) [Site 1388]”: the “Mean (mSCNN1A expression normalized to the level of m36B4)” value came to 0.04, the “Percent Reduction of the mSCNN1A mRNA relative to a non-targeting control siNA” value was 73.4%, the “Avg ENaCα Expression (mSCNN1A)” value is given as 0.90 and the “Avg 36B4 Expression” value worked out at 24.18. Further, the IC50 was found to be 1.9 nM and the “Mouse % KD (efficacy of ENaCα mRNA knockdown)” value turned out to be 73%.
With “B GuGGcuGuGccuAcAucuu TTB / AAGAuGuAGGcAcAGccAcUU (sense GUGGCUGUGCCUACAUCUUTT; antisense AAGAUGUAGGCACAGCCACUU; siRNA; sense: DNA at AGT, 2'-fluoro at CU, [invAb] at 5' end, 3' end, backbone not given here; antisense: sugars from the 5' end rrrmfmfmmmfmfmmffmfmm, backbone not given here) [Site 1385]”, the “Mean (mSCNN1A expression normalized to the level of m36B4)” value is listed as 0.13, the “Percent Reduction of the mSCNN1A mRNA relative to a non-targeting control siNA” value is recorded as 4.4%, the “Avg ENaCα Expression (mSCNN1A)” value came out at 2.95 and the “Avg 36B4 Expression” value is reported as 22.75.
Turning to “B GuGuGGcuGuGccuAcAuc TTB / GAUGuAGGcAcAGccAcAcUU (sense GUGUGGCUGUGCCUACAUCTT; antisense GAUGUAGGCACAGCCACACUU; siRNA; B caps on sense ends, letter-case modifications not given here, further chemistry not given here) [Site 1383]”, the “Mean (mSCNN1A expression normalized to the level of m36B4)” value is 0.04, the “Percent Reduction of the mSCNN1A mRNA relative to a non-targeting control siNA” value is recorded as 82.4%, the “Avg ENaCα Expression (mSCNN1A)” value was 0.91 and the “Avg 36B4 Expression” value worked out at 14.23. The IC50 is 3 nM and the “Mouse % KD (efficacy of ENaCα mRNA knockdown)” value is 82%.
In the case of “B GuccAAccuGGGcAGccAG TTB / CUGGcuGcccAGGuuGGAcUU (sense GUCCAACCUGGGCAGCCAGTT; antisense CUGGCUGCCCAGGUUGGACUU; siRNA; sense: DNA at AGT, 2'-fluoro at CU, [invAb] at 5' end, 3' end, backbone not given here; antisense: sugars from the 5' end rmmmffmfffmmmffmmmfmm, backbone not given here) [Site 1743]”, the “Mean (mSCNN1A expression normalized to the level of m36B4)” value is reported as 0.13, the “Percent Reduction of the mSCNN1A mRNA relative to a non-targeting control siNA” value came to 6.7%, the “Avg ENaCα Expression (mSCNN1A)” value turned out to be 2.87 and the “Avg 36B4 Expression” value is recorded as 22.47.
Turning to “B cAGAGcAGAAuGAcuucAu TTB / AUGAAGucAuucuGcucuGUU (sense CAGAGCAGAAUGACUUCAUTT; antisense AUGAAGUCAUUCUGCUCUGUU; siRNA; sense: DNA at AGT, 2'-fluoro at CU, [invAb] at 5' end, 3' end, backbone not given here; antisense: sugars from the 5' end rrrmmmffmffffmffffmmm, backbone not given here) [Site 1100]”, the “Mean (mSCNN1A expression normalized to the level of m36B4)” value is recorded as 0.24, the “Percent Reduction of the mSCNN1A mRNA relative to a non-targeting control siNA” value is −1.5%, the “Avg ENaCα Expression (mSCNN1A)” value came out at 3.43 and the “Avg 36B4 Expression” value is given as 14.25.
As to “B cAcAAccGcAuGAAGAcGG TTB / CCGucuucAuGcGGuuGuGUU (chain 1 CACAACCGCAUGAAGACGGTT; chain 2 CCGUCUUCAUGCGGUUGUGUU; siRNA; chain 1: DNA at AGT, 2'-fluoro at CU, [invAb] at 5' end, 3' end, backbone not given here; chain 2: sugars from the 5' end rrrfffffmfmfmmffmfmmm, backbone not given here) [Site 334]”, the “Mean (mSCNN1A expression normalized to the level of m36B4)” value came to 0.21, the “Percent Reduction of the mSCNN1A mRNA relative to a non-targeting control siNA” value turned out to be 12.3%, the “Avg ENaCα Expression (mSCNN1A)” value was found to be 3.57 and the “Avg 36B4 Expression” value was 16.98.
Take “B cAcuccuGcuuccAGGAGA TTB / UCUccuGGAAGcAGGAGuGUU (sense CACUCCUGCUUCCAGGAGATT; antisense UCUCCUGGAAGCAGGAGUGUU; siRNA; sense: DNA at AGT, 2'-fluoro at CU, [invAb] at 5' end, 3' end, backbone not given here; antisense: sugars from the 5' end rrrfffmmmmmfmmmmmfmmm, backbone not given here) [Site 1351]”: the “Mean (mSCNN1A expression normalized to the level of m36B4)” value was determined as 0.22, the “Percent Reduction of the mSCNN1A mRNA relative to a non-targeting control siNA” value is 9.6%, the “Avg ENaCα Expression (mSCNN1A)” value came out at 2.56 and the “Avg 36B4 Expression” value turned out to be 11.91.
On the same counts, the results for “B cGcAuGAAGAcGGccuucu TTB / AGAAGGccGucuucAuGcGUU (chain 1 CGCAUGAAGACGGCCUUCUTT; chain 2 AGAAGGCCGUCUUCAUGCGUU; siRNA; chain 1: DNA at AGT, 2'-fluoro at CU, [invAb] at 5' end, 3' end, backbone not given here; chain 2: sugars from the 5' end rrrmmmffmfffffmfmfmmm, backbone not given here) [Site 340]” are 0.23, 5.4%, 3.35 and 14.93.
